Reference: PubChem BioAssay AID1963967 (Molecular Pharmacology Branch, DTP, NCI, 2024)
pIC50: −log10 of the molar value. Values joined by “and” are separate entries in the source; they are usually repeats but may differ in a detail not shown here. Identical values can stand only once.

System: 855422-203-R-J1-PDC spheroids with HUVEC/MSC, viability
Experiment: Anticancer human tumor 855422-203-R-J1-PDC patient-derived bladder carcinoma cell line growth inhibition [PI3K]
Conditions: for viability, T/C: stronger effect = lower value
Source text: Combinatorial screen of targeted agents with the PI3K inhibitors inavolisib, alpelisib, duvelisib, and copanlisib in multi-cell type tumor spheroids
A high-throughput screen of multi-cell type tumor spheroids was designed to identify active combinations of targeted small molecules and PI3K pathway inhibitors. Complex spheroids include a stromal component modeled by human endothelial cells (HUVEC) and fibroblasts modeled by human mesenchymal stem cells (MSCs). The concentration ranges selected for each drug and investigational agent were based upon clinically achievable concentrations if the clinical Cmax of the agent was known.
Compounds. The drugs and investigational agents: inavolisib (NSC800729), alpelisib (NSC765974), duvelisib (NSC772469), copanlisib (NSC816437), ipatasertib (NSC767898), afuresertib (NSC778305), talazoparib (NSC767125), sapanisertib (NSC764658), selumetinib (NSC741078), tovorafenib (DAY101, NSC766906), vemurafenib (NSC761431), ravoxertinib (NSC781343), sotorasib (NSC818433), MRTX1133 (NSC 836407), abemaciclib (NSC 768073), palbociclib (NSC758247), venetoclax (NSC 766270), SY5609 (NSC837396), enzalutamide (NSC755605), and darolutamide (NSC825331), were obtained from the National Cancer Institute (NCI) Developmental Therapeutics Program Chemical Repository. The FDA-approved anticancer drug set is available from the NCI Developmental Therapeutics Program. […] The stock solutions were prepared in dimethyl sulfoxide (DMSO, Sigma-Aldrich, St. Louis, MO, cat. D2650) at 800-fold the tested concentration and stored at -70 degrees C prior to their use. All drugs and investigational agents were tested over a range starting from a high concentration at or near the clinical Cmax and decreasing in half-log increments. If the clinical Cmax for an agent had not been determined, the highest concentration tested was 10 microM.
Cell Culture. All cells were maintained in an incubator at 37 degrees C and 5% CO2 with 95% humidity. The PDC lines were cultured according to standard operating procedures established by the NCI PDMR (https://pdmr.cancer.gov/sops/default.htm). All PDCs were thawed and cultured in Matrigel-coated flasks prepared with a working solution of 1X Ham's F-12 nutrient mix, without supplementation (Invitrogen, Waltham, MA, cat. 11765054), 100 U/mL penicillin-streptomycin (Invitrogen, cat. 15140122), and 2.5% Matrigel (Corning Inc., Corning, NY, cat. 354248) for the first three passages. The 354836-022-R-J1-PDC, 475296-252-R-J1-PDC, and 997726-040-R-J2-PDC lines were cultured in 6A media, which includes advanced DMEM/F-12 (Thermo Fisher Scientific, cat. 12634028), 10 mM HEPES (Thermo Fisher Scientific, cat. 15630080), 1X GlutaMAX supplement (Thermo Fisher Scientific, cat. 35050061), 0.1 mg/mL primocin (InvivoGen, San Diego, CA, cat. ant-pm-2), 10% defined fetal bovine serum, heat inactivated (HyClone Laboratories Inc., Logan, UT, cat. SH30070.03HI), 50% L-WRN conditioned media (ATCC, cat. CRL-3276), 1.25 mM N-Acetyl-L-cysteine (Sigma-Aldrich, cat. A9165), 10 mM nicotinamide (Sigma-Aldrich, cat. N0636), 1X B-27 supplement (Thermo Fisher Scientific, cat. 17504044), 1X N-2 supplement (Thermo Fisher Scientific, cat. 17502048), and 10 microM Y-27632 dihydrochloride (Tocris Bioscience, Bristol, United Kingdom, cat. 1254). The 624824-186-R-J2-PDC line was cultured in 6C/Colon 1B media, which includes all 6A media components plus 50 ng/mL human EGF recombinant protein (Thermo Fisher Scientific, cat. PHG0311). […]

[1] = curve of first compound, second compound 0.0316 µM
[2] = curve of first compound, second compound 0.1 µM
[3] = curve of first compound, second compound 0.316 µM
[4] = curve of first compound, second compound 1 µM
[5] = second compound 0.0316 µM, first compound 0.0316 µM
[6] = second compound 0.0316 µM, first compound 0.1 µM
[7] = second compound 0.0316 µM, first compound 0.316 µM
[8] = second compound 0.0316 µM, first compound 1 µM
[9] = second compound 0.0316 µM, first compound 3.16 µM
[10] = second compound 0.0316 µM, first compound 10 µM
[11] = second compound 0.1 µM, first compound 0.0316 µM
[12] = second compound 0.1 µM, first compound 0.1 µM
[13] = second compound 0.1 µM, first compound 0.316 µM
[14] = second compound 0.1 µM, first compound 1 µM
[15] = second compound 0.1 µM, first compound 3.16 µM
[16] = second compound 0.1 µM, first compound 10 µM
[17] = second compound 0.316 µM, first compound 0.0316 µM
[18] = second compound 0.316 µM, first compound 0.1 µM
[19] = second compound 0.316 µM, first compound 0.316 µM
[20] = second compound 0.316 µM, first compound 1 µM
[21] = second compound 0.316 µM, first compound 3.16 µM
[22] = second compound 0.316 µM, first compound 10 µM
[23] = second compound 1 µM, first compound 0.0316 µM
[24] = second compound 1 µM, first compound 0.1 µM
[25] = second compound 1 µM, first compound 0.316 µM
[26] = second compound 1 µM, first compound 1 µM
[27] = second compound 1 µM, first compound 3.16 µM
[28] = second compound 1 µM, first compound 10 µM
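Further: agents incubated with spheroids for one week before read-out.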
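Wherever viability, T/C is given: 100% = DMSO vehicle-treated control wells.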

Cn1ncc(Cl)c1-c1cc(C(=O)NC(CN)Cc2cccc(F)c2)sc1Cl (configuration not stated) + Cc1nc(NC(=O)N2CCCC2C(N)=O)sc1-c1ccnc(C(C)(C)C(F)(F)F)c1 was tested, and the pIC50 [1] was 5.99, the pIC50 [2] was 5.94 and the pIC50 [3] was 6.05. For the same compound, the pIC50 [4] was 6.20, the pIC50 (curve of first compound, second compound 3.16 µM) was > 7.50 and the pIC50 (curve of first compound, second compound 10 µM) was > 7.50. The viability, T/C [5] was 100%, the viability, T/C [6] was 78% and the viability, T/C [7] was 71%. For the same compound, the viability, T/C [8] was 50.1%, the viability, T/C [9] was 32.6% and the viability, T/C [10] was 9.93%. For the same compound, the viability, T/C [11] was 89.6%, the viability, T/C [12] was 77.6% and the viability, T/C [13] was 71.8%. For the same compound, the viability, T/C [14] was 50.9%, the viability, T/C [15] was 32.9% and the viability, T/C [16] was 9.68%. It also gave a viability, T/C [17] of 89.3%, a viability, T/C [18] of 74.6% and a viability, T/C [19] of 64.8%. The viability, T/C [20] was 52.4%, the viability, T/C [21] was 25.8% and the viability, T/C [22] was 7.56%. For the same compound, the viability, T/C [23] was 64.8%, the viability, T/C [24] was 65.3% and the viability, T/C [25] was 55.5%. For the same compound, the viability, T/C [26] was 46.5%, the viability, T/C [27] was 21.3% and the viability, T/C [28] was 3.26%. For the same compound, the viability, T/C (second compound 3.16 µM, first compound 0.0316 µM) was 46.9%, the viability, T/C (second compound 3.16 µM, first compound 0.1 µM) was 43% and the viability, T/C (second compound 3.16 µM, first compound 0.316 µM) was 41.9%. For the same compound, the viability, T/C (second compound 3.16 µM, first compound 1 µM) was 31.4%, the viability, T/C (second compound 3.16 µM, first compound 3.16 µM) was 13.9% and the viability, T/C (second compound 3.16 µM, first compound 10 µM) was 2.81%. For the same compound, the viability, T/C (second compound 10 µM, first compound 0.0316 µM) was 25.8%, the viability, T/C (second compound 10 µM, first compound 0.1 µM) was 23.4% and the viability, T/C (second compound 10 µM, first compound 0.316 µM) was 20.3%. It also gave a viability, T/C (second compound 10 µM, first compound 1 µM) of 16.3%, a viability, T/C (second compound 10 µM, first compound 3.16 µM) of 9.69% and a viability, T/C (second compound 10 µM, first compound 10 µM) of 0.43%.
In the case of Cn1ncnc1[C@H]1c2n[nH]c(=O)c3cc(F)cc(c23)N[C@@H]1c1ccc(F)cc1, the viability, T/C (compound 0.000316 µM) was 113% [middle of 4 runs], the viability, T/C (compound 0.001 µM) was 107% [middle of 4 runs] and the viability, T/C (compound 0.00316 µM) was 104% (2×) and 108% and 109%. For the same compound, the viability, T/C (compound 0.01 µM) was 101% [middle of 4 runs], the viability, T/C (compound 0.0316 µM) was 110% [middle of 4 runs] and the viability, T/C (compound 0.1 µM) was 107% and 100% (3×). The pIC50 (curve of compound) was < 7.00.
In the case of CCN1CCN(Cc2ccc(Nc3ncc(F)c(-c4cc(F)c5nc(C)n(C(C)C)c5c4)n3)nc2)CC1, the viability, T/C (compound 0.00316 µM) was 111% [middle of 4 runs], the viability, T/C (compound 0.0316 µM) was 107% [middle of 4 runs] and the viability, T/C (compound 0.1 µM) was 83.3% [middle of 4 runs]. For the same compound, the viability, T/C (compound 0.316 µM) was 71.9% and 69.7% (2×) and 83.9%, the viability, T/C (compound 1 µM) was 60.2% [middle of 4 runs] and the pIC50 (curve of compound) was < 6.00.
For Cn1ncc(Cl)c1-c1cc(C(=O)NC(CN)Cc2cccc(F)c2)sc1Cl (configuration not stated) + COc1c(OCCCN2CCOCC2)ccc2c3n(c(=NC(=O)c4cnc(N)nc4)nc12)CCN3, the pIC50 (curve of first compound, second compound 0.00316 µM) was 6.14, the pIC50 (curve of first compound, second compound 0.01 µM) was 6.20 and the pIC50 [1] was 6.75. For the same compound, the pIC50 [2] was > 7.50, the pIC50 [3] was > 7.50 and the pIC50 [4] was > 7.50. For the same compound, the viability, T/C (second compound 0.00316 µM, first compound 0.0316 µM) was 88.5%, the viability, T/C (second compound 0.00316 µM, first compound 0.1 µM) was 73.7% and the viability, T/C (second compound 0.00316 µM, first compound 0.316 µM) was 63.2%. It also gave a viability, T/C (second compound 0.00316 µM, first compound 1 µM) of 45.5%, a viability, T/C (second compound 0.00316 µM, first compound 3.16 µM) of 26.9% and a viability, T/C (second compound 0.00316 µM, first compound 10 µM) of 6.73%. For the same compound, the viability, T/C (second compound 0.01 µM, first compound 0.0316 µM) was 77.8%, the viability, T/C (second compound 0.01 µM, first compound 0.1 µM) was 69.8% and the viability, T/C (second compound 0.01 µM, first compound 0.316 µM) was 62%. For the same compound, the viability, T/C (second compound 0.01 µM, first compound 1 µM) was 42.7%, the viability, T/C (second compound 0.01 µM, first compound 3.16 µM) was 19.6% and the viability, T/C (second compound 0.01 µM, first compound 10 µM) was 5.83%. The viability, T/C [5] was 60.7%, the viability, T/C [6] was 54.4% and the viability, T/C [7] was 45.2%. The viability, T/C [8] was 29.4%, the viability, T/C [9] was 13% and the viability, T/C [10] was 3.13%. It also gave a viability, T/C [11] of 27.6%, a viability, T/C [12] of 27.3% and a viability, T/C [13] of 19.7%. The viability, T/C [14] was 15.4%, the viability, T/C [15] was 7.63% and the viability, T/C [16] was 0.88%. The viability, T/C [17] was 8.42%, the viability, T/C [18] was 7.12% and the viability, T/C [19] was 8.39%. For the same compound, the viability, T/C [20] was 7.12%, the viability, T/C [21] was 4.22% and the viability, T/C [22] was 0.34%. The viability, T/C [23] was 3.34%, the viability, T/C [24] was 4.22% and the viability, T/C [25] was 3.37%. For the same compound, the viability, T/C [26] was 4.04%, the viability, T/C [27] was 1.54% and the viability, T/C [28] was 1.32%.
